# Source: US20240207292A1, “BORONIC ACID COMPOUNDS, COMPOSITIONS AND METHODS” (Trustees of Tufts College, priority 2021, published 2024)
# Square brackets hold non-standard residues; d marks the D form. Peptide text beside a SMILES is read from it. * marks the point of attachment. DOTA(Ga) = O=C1CN2CCN3CCN(CC(=O)*)CCN(CC2)CC(=O)[O][Ga]([O]1)[O]C(=O)C3; DOTAGA = O=C(O)CN1CCN(CC(=O)O)CCN(C(CCC(=O)*)C(=O)O)CCN(CC(=O)O)CC1; DOTA = O=C(O)CN1CCN(CC(=O)O)CCN(CC(=O)*)CCN(CC(=O)O)CC1; X6 = CN1CC(=O)C2(C1)OC([C@@H]1CCCN1*)OC2=O; boroPro = OB(O)[C@@H]1CCCN1*
# Biological target: recombinant human prolyl oligopeptidase (PREP) (Homo sapiens (Human), UniProt P48147)
# Assay: In vitro assay prolyl oligopeptidase IC50 (Example 21)
# Format: biochemical
# Settings: not given
# Method: (§1) The purpose of this assay is to determine the IC50 of various inhibitors against recombinant human dipeptidyl peptidase IV (DPPIV), fibroblast activation protein (FAP) or prolyl oligopeptidase (PREP).
# (§2) The assays are conducted in the following steps: • 1 Dissolve the compound in DMSO to a final concentration of 100 mM. From this, prepare a 1 mM stock at pH 7.5 in 50 mM Tris, 140 mM NaCl Buffer (FAP)/pH 7.5 in 25 mM Tris, 250 mM NaCl Buffer/[…]. • 2. Serial dilute (1:10) the 1 mM compound stocks prepared previously into the appropriate assay buffer (FAP: 50 mM Tris, 140 mM NaCl, pH 7.5/PREP: 25 mM Tris, 0.25 M NaCl, pH 7.5/DPPIV: 25 mM Tris, pH 8.0) to one row of a 96-well plate. • 3. […] Dilute the enzymes into their appropriate assay buffers. The final enzyme concentrations should be 0.1, 1.2, and 0.6 nM for DPPIV, FAP and PREP respectively. Add 180 μL to each well needed in columns 2-10. Column 1(A,B,C) should be prepared with 200 μl of appropriate assay buffer as control. Column 1(D,E,F,G,H) should be prepared with 20 μl of appropriate assay buffer and 180 ul enzyme as no inhibitor control. • 5. Add 20 μL of the compound of interest from the dilution plate prepared in step 2 to columns 2-10 of the assay plate where appropriate. Each sample should be tested in triplicate. Allow this to incubate for 10 minutes at room temperature, shaking the plate for the first two minutes. • 6. Add 10 μL of 20× substrate prepared in step 3 to each well and allow this to incubate for 15 minutes at room temperature, shaking the plate for the first two minutes. • 7. Read the fluorescence at λex: 380, λem: 460. (DPcore=[dAla|dSer|Gly]-[boroPro|Pro-nitrile], XXaa=alpha-amino acid)
# Chain of recombinant human prolyl oligopeptidase (PREP) (P48147 whole entry): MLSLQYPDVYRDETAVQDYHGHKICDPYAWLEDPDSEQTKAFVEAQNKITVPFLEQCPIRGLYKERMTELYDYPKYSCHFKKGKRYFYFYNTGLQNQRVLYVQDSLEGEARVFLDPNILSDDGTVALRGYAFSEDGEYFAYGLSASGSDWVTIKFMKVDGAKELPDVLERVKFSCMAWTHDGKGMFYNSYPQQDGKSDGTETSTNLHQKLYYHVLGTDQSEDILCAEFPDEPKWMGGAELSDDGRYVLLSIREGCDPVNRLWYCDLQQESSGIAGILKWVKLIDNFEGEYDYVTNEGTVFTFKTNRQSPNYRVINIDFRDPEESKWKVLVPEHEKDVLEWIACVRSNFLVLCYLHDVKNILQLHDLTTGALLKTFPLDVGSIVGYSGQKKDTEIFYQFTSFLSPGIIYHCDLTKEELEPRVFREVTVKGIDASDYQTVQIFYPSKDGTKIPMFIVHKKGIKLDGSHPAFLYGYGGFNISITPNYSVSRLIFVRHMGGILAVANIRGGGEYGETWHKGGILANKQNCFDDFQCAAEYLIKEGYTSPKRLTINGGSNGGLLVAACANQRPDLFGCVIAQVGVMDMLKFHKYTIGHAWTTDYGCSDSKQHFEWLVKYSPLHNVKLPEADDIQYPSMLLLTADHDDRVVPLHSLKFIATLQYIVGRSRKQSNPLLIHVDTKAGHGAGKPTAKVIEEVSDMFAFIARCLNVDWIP
row,Compound,IC50
1,C[C@@H](NC(=O)c1ccc(CNC(=O)CN2CCN3CCN4CCN(CC2)CC(=O)[O][Ga]([O]C(=O)C3)[O]C(=O)C4)nc1)C(=O)N1CCC[C@H]1B(O)O [6556GA],248 nM
2,C[C@@H](NC(=O)c1ccc(NNC(=O)CCCCCNC(=O)CN2CCN3CCN4CCN(CC2)CC(=O)[O][Lu]([O]C(=O)C3)[O]C(=O)C4)nc1)C(=O)N1CCC[C@H]1B(O)O [6609LU],60 nM
3,C[C@@H](NC(=O)c1ccc(NNC(=O)CNC(=O)CN2CCN3CCN4CCN(CC2)CC(=O)[O][Lu]([O]C(=O)C3)[O]C(=O)C4)cc1)C(=O)N1CCC[C@H]1B(O)O [6487LU],34 nM
4,C[C@@H](NC(=O)c1ccc(NC(=O)CCCCNC(=O)CN2CCN(CC(=O)O)CCN(CC(=O)O)CCN(CC(=O)O)CC2)cc1)C(=O)N1CCC[C@H]1B(O)O [compound 6590],129 nM

# Same assay, conditions: Z-Gly-Pro-AMC; 0.6 nM enzyme
row,IC50,Compound
1,5520 nM,CC(C)[C@H](NC(=O)CNC(=O)CCC(C(=O)O)N1CCN(CC(=O)O)CCN(CC(=O)O)CCN(CC(=O)O)CC1)C(=O)N[C@H](C)C(=O)N1CCC[C@H]1B(O)O (stereo partly drawn) [compound 6795]

# Biological target: recombinant human fibroblast activation protein (FAP) (Homo sapiens (Human), UniProt Q12884)
# Assay: In vitro assay fibroblast activation protein IC50 (Example 21)
# Format: biochemical
# Settings: not given
# Method: as §1, §2
# Chain of recombinant human fibroblast activation protein (FAP) (Q12884 whole entry): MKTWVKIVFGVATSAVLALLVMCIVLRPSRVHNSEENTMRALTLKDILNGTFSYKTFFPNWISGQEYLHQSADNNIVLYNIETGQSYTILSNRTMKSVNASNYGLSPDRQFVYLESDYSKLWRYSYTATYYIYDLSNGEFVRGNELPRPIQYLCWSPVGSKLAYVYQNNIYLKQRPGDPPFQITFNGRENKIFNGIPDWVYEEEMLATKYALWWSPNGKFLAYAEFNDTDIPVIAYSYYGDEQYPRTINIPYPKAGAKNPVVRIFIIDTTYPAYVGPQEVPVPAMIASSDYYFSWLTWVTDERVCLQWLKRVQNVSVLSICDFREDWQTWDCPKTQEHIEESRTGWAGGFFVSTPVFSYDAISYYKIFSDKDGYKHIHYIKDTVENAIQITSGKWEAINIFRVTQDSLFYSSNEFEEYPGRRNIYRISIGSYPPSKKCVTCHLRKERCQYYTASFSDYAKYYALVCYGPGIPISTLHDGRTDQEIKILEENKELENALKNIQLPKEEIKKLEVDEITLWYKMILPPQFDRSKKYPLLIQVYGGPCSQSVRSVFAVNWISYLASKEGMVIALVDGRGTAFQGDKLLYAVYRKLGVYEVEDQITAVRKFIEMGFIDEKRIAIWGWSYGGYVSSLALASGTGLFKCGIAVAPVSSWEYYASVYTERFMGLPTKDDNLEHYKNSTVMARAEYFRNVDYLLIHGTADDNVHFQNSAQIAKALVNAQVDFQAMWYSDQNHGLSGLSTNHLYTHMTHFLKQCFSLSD
row,Compound,IC50
1,C[C@@H](NC(=O)c1ccc(CNC(=O)CN2CCN3CCN4CCN(CC2)CC(=O)[O][Ga]([O]C(=O)C3)[O]C(=O)C4)nc1)C(=O)N1CCC[C@H]1B(O)O [6556GA],32 nM
2,C[C@@H](NC(=O)c1ccc(NNC(=O)CNC(=O)CN2CCN3CCN(CC(=O)O)CCN(CC2)CC(=O)[O][Cu][O]C(=O)C3)cc1)C(=O)N1CCC[C@H]1B(O)O [6487CU],8.8 nM
3,C[C@@H](NC(=O)c1ccc(NNC(=O)CCCCCNC(=O)CN2CCN3CCN4CCN(CC2)CC(=O)[O][Lu]([O]C(=O)C3)[O]C(=O)C4)nc1)C(=O)N1CCC[C@H]1B(O)O [6609LU],1 nM
4,CC(C)[C@H](NC(=O)c1ccc(CNC(=O)CN2CCN3CCN4CCN(CC2)CC(=O)[O][Ga]([O]C(=O)C3)[O]C(=O)C4)cc1)C(=O)N[C@H](C)C(=O)N1CCC[C@H]1B(O)O [6967 GA],65 nM
5,C[C@@H](NC(=O)c1ccc(NNC(=O)CNC(=O)CN2CCN3CCN4CCN(CC2)CC(=O)[O][Lu]([O]C(=O)C3)[O]C(=O)C4)cc1)C(=O)N1CCC[C@H]1B(O)O [6487LU],8.8 nM
6,C[C@@H](NC(=O)c1ccc(NC(=O)CCCCNC(=O)CN2CCN(CC(=O)O)CCN(CC(=O)O)CCN(CC(=O)O)CC2)cc1)C(=O)N1CCC[C@H]1B(O)O [compound 6590],1.6 nM
7,C[C@@H](NC(=O)c1ccc(NNC(=O)CN2CCN3CCN(CC(=O)O)CCN(CC2)CC(=O)[O][Cu][O]C(=O)C3)cc1)C(=O)N1CCC[C@H]1B(O)O [5183BU],10.3 nM
8,C[C@@H](NC(=O)c1ccc(NC(=O)CCCCNC(=O)CN2CCN3CCN4CCN(CC2)CC(=O)[O][Ga]([O]C(=O)C3)[O]C(=O)C4)cc1)C(=O)N1CCC[C@H]1B(O)O [6590 GA],15 nM
9,C[C@@H](NC(=O)c1ccc(NNC(=O)CCCNC(=O)CN2CCN3CCN4CCN(CC2)CC(=O)[O][Gd]([O]C(=O)C3)[O]C(=O)C4)nc1)C(=O)N1CCC[C@H]1B(O)O [6489 GD],1.1 nM
10,C[C@@H](NC(=O)c1ccc(NC(=O)CCNC(=O)CN2CCN3CCN4CCN(CC2)CC(=O)[O][Lu]([O]C(=O)C3)[O]C(=O)C4)cc1)C(=O)N1CCC[C@H]1B(O)O [6590LU],0.4 nM
11,C[C@@H](NC(=O)c1ccc(NNC(=O)CCCCCNC(=O)CN2CCN(CC(=O)O)CCN(CC(=O)O)CCN(CC(=O)O)CC2)nc1)C(=O)N1CCC[C@H]1B(O)O [compound 6958],3.2 nM
12,C[C@@H](NC(=O)c1ccc(NNC(=O)CN2CCN3CCN4CCN(CC2)CC(=O)[O][Ga]([O]C(=O)C3)[O]C(=O)C4)nc1)C(=O)N1CCC[C@H]1B(O)O [5183GA],46.1 nM

# Same assay, conditions: Z-Gly-Pro-AMC; 1.2 nM enzyme
row,Compound,IC50
1,"CC(C)[C@H](NC(=O)CCCCCNC(=O)CN1CCN2CCN3CCN(CC1)CC(=O)[O][Ga]([O]C(=O)C2)[O]C(=O)C3)C(=O)N[C@H](C)C(=O)N1CCC[C@H]1B(O)O [6948GA, DOTA(Ga)-HEX-Val-Dala-boroPro]",144 nM
2,"CC(C)[C@H](NC(=O)CCCCCCCNC(=O)CN1CCN2CCN3CCN(CC1)CC(=O)[O][Ga]([O]C(=O)C2)[O]C(=O)C3)C(=O)N[C@H](C)C(=O)N1CCC[C@H]1B(O)O [6947GA, DOTA(Ga)-OCT-Val-Dala-boroPro]",219 nM
3,CC(C)[C@H](NC(=O)[C@@H](C)NC(=O)CNC(=O)CNC(=O)CNC(=O)CN1CCN(CC(=O)O)CCN(CC(=O)O)CCN(CC(=O)O)CC1)C(=O)N[C@H](C)C(=O)N1CCC[C@H]1B(O)O [compound 6839] ({DOTA}-GGG[dA]V[dA]-boroPro),21 nM
4,CC(C)[C@H](NC(=O)CNC(=O)CCC(C(=O)O)N1CCN(CC(=O)O)CCN(CC(=O)O)CCN(CC(=O)O)CC1)C(=O)N[C@H](C)C(=O)N1CCC[C@H]1B(O)O (stereo partly drawn) [compound 6795],8.9 nM
5,CC(C)[C@H](NC(=O)CNC(=O)CNC(=O)CNC(=O)CNC(=O)CNC(=O)CN1CCN2CCN3CCN(CC1)CC(=O)[O][Ga]([O]C(=O)C2)[O]C(=O)C3)C(=O)N[C@H](C)C(=O)N1CCC[C@H]1B(O)O [6848GA] ({DOTA(Ga)}-GGGGGV[dA]-boroPro),180 nM
6,"CC(C)[C@H](NC(=O)CCCCNC(=O)CN1CCN2CCN3CCN(CC1)CC(=O)[O][Ga]([O]C(=O)C2)[O]C(=O)C3)C(=O)N[C@H](C)C(=O)N1CCC[C@H]1B(O)O [6940GA, DOTA(Ga)-PEN-Val-Dala-boroPro]",110 nM
7,CC(C)[C@H](NC(=O)CNC(=O)CNC(=O)CNC(=O)CNC(=O)CNC(=O)CCC(C(=O)O)N1CCN(CC(=O)O)CCN(CC(=O)O)CCN(CC(=O)O)CC1)C(=O)N[C@H](C)C(=O)N1CCC[C@H]1B(O)O (stereo partly drawn) [compound 6869] ({DOTAGA}-GGGGGV[dA]-boroPro),1.1 nM
8,CC(C)[C@H](NC(=O)CNC(=O)CNC(=O)CNC(=O)CCC(C(=O)O)N1CCN(CC(=O)O)CCN(CC(=O)O)CCN(CC(=O)O)CC1)C(=O)N[C@H](C)C(=O)N1CCC[C@H]1B(O)O (stereo partly drawn) [compound 6808] ({DOTAGA}-GGGV[dA]-boroPro),11.5 nM
9,"CC(C)[C@H](NC(=O)CCNC(=O)CN1CCN(CC(=O)O)CCN(CC(=O)O)CCN(CC(=O)O)CC1)C(=O)N[C@H](C)C(=O)N1CCC[C@H]1B(O)O [compound 6615, DOTA-betaala-Val-D-ala-boroPro]",121 nM
10,CC(C)[C@H](NC(=O)CNC(=O)CNC(=O)CNC(=O)CN1CCN(CC(=O)O)CCN(CC(=O)O)CCN(CC(=O)O)CC1)C(=O)N[C@H](C)C(=O)N1CCC[C@H]1B(O)O [compound 6834] ({DOTA}-GGGV[dA]-boroPro),26.8 nM
11,CC(C)[C@H](NC(=O)CNC(=O)CNC(=O)CNC(=O)CNC(=O)CNC(=O)CNC(=O)CCC(C(=O)O)N1CCN(CC(=O)O)CCN(CC(=O)O)CCN(CC(=O)O)CC1)C(=O)N[C@H](C)C(=O)N1CCC[C@H]1B(O)O (stereo partly drawn) [compound 6870] ({DOTAGA}-GGGGGGV[dA]-boroPro),9.2 nM
12,CC(C)[C@H](NC(=O)CCCCCCNC(=O)CN1CCN2CCN3CCN(CC1)CC(=O)[O][Ga]([O]C(=O)C2)[O]C(=O)C3)C(=O)N[C@H](C)C(=O)N1CCC[C@H]1B(O)O [6949GA],181 nM
13,CC(C)[C@H](NC(=O)CNC(=O)CNC(=O)CNC(=O)CNC(=O)CN1CCN2CCN3CCN(CC1)CC(=O)[O][Ga]([O]C(=O)C2)[O]C(=O)C3)C(=O)N[C@H](C)C(=O)N1CCC[C@H]1B(O)O [6839GA] ({DOTA(Ga)}-GGGGV[dA]-boroPro),258 nM
14,CC(C)[C@H](NC(=O)CNC(=O)CNC(=O)CNC(=O)CNC(=O)CNC(=O)CN1CCN(CC(=O)O)CCN(CC(=O)O)CCN(CC(=O)O)CC1)C(=O)N[C@H](C)C(=O)N1CCC[C@H]1B(O)O [compound 6848] ({DOTA}-GGGGGV[dA]-boroPro),14.8 nM
15,CC(C)[C@H](NC(=O)CNC(=O)CNC(=O)CNC(=O)CNC(=O)CNC(=O)CNC(=O)CN1CCN(CC(=O)O)CCN(CC(=O)O)CCN(CC(=O)O)CC1)C(=O)N[C@H](C)C(=O)N1CCC[C@H]1B(O)O [compound 6850] ({DOTA}-GGGGGGV[dA]-boroPro),21 nM
16,CC(C)[C@H](NC(=O)CNC(=O)CNC(=O)CNC(=O)CN1CCN2CCN3CCN(CC1)CC(=O)[O][Ga]([O]C(=O)C2)[O]C(=O)C3)C(=O)N[C@H](C)C(=O)N1CCC[C@H]1B(O)O [6834GA] ({DOTA(Ga)}-GGGV[dA]-boroPro),439 nM
17,CC(C)[C@H](NC(=O)CNC(=O)CN1CCN2CCN3CCN(CC1)CC(=O)[O][Ga]([O]C(=O)C2)[O]C(=O)C3)C(=O)N[C@H](C)C(=O)N1CCC[C@H]1B(O)O [6521GA],277 nM
18,"CC(C)[C@H](NC(=O)CCCNC(=O)CN1CCN2CCN3CCN(CC1)CC(=O)[O][Ga]([O]C(=O)C2)[O]C(=O)C3)C(=O)N[C@H](C)C(=O)N1CCC[C@H]1B(O)O [6614GA, DOTA(Ga)-GABA-Val-D-ala-boroPro]",218 nM
19,"CC(C)[C@H](NC(=O)CCCCNC(=O)CN1CCN(CC(=O)O)CCN(CC(=O)O)CCN(CC(=O)O)CC1)C(=O)N[C@H](C)C(=O)N1CCC[C@H]1B(O)O [compound 6940, DOTA-PEN-Val-D-alaboroPro]",5.2 nM
20,"CC(C)[C@H](NC(=O)CCCCNC(=O)CN1CCN2CCN3CCN(CC1)CC(=O)[O][Lu]([O]C(=O)C2)[O]C(=O)C3)C(=O)N[C@H](C)C(=O)N1CCC[C@H]1B(O)O [6940LU, DOTA(Lu)-PEN-Val-Dala-boroPro]",23.6 nM
21,CC(C)[C@H](NC(=O)CNC(=O)CNC(=O)CN1CCN(CC(=O)O)CCN(CC(=O)O)CCN(CC(=O)O)CC1)C(=O)N[C@H](C)C(=O)N1CCC[C@H]1C1OC(=O)C2(CN(C)CC2=O)O1 (stereo partly drawn) [6522M] ({DOTA}-GGV[dA]-X6),280 nM
22,CC(C)[C@H](NC(=O)CNC(=O)CNC(=O)CNC(=O)CNC(=O)CCC(C(=O)O)N1CCN(CC(=O)O)CCN(CC(=O)O)CCN(CC(=O)O)CC1)C(=O)N[C@H](C)C(=O)N1CCC[C@H]1B(O)O (stereo partly drawn) [compound 6868] ({DOTAGA}-GGGGV[dA]-boroPro),21 nM
